Results as given in US9408842B2, “Substituted pyrano and furanoquinolines, their preparation and use as medicaments” (LABORATORIOS DEL DR. ESTEVE S.A., priority 2012, dated 2016).
Structures can show the parent of a compound that is named as a salt.

Target: T1, σ1-receptor (Cavia porcellus, UniProt Q60492)
T1 construct: Guinea pig brains were homogenized in 10 vols; (w/v) of Tris-HCl 50 mM 0.32 M sucrose, pH 7.4; from tissue; host or cells: guinea pig brain membranes
Test: binding assay for the σ1-receptor, [3H]-(+)-pentazocine, brain membranes
Conditions: guinea pig brain membranes; radioligand [3H]-(+)-pentazocine 5.0 nM; 150 min at 37° C.; nonspecific binding with 1 μM haloperidol
Protocol: Guinea pig brains were homogenized in 10 vols. (w/v) of Tris-HCl 50 mM 0.32 M sucrose, pH 7.4, with a Kinematica Polytron PT 3000 at 15000 r.p.m. for 30 s. The homogenate was centrifuged at 1000 g for 10 min at 4° C. and the supernatants collected and centrifuged again at 48000 g for 15 min at 4° C. The pellet was resuspended in 10 volumes of Tris-HCl buffer (50 mM, pH 7.4), incubated at 37° C. for 30 min, and centrifuged at 48000 g for 20 min at 4° C. Following this, the pellet was re-suspended in fresh Tris-HCl buffer (50 mM, pH 7.4) and stored on ice until use.
The radioligand used was [^3H]-(+)-pentazocine at 5.0 nM and the final volume was 200 μl. The incubation was initiated with the addition of 100 μl of membrane at a final tissue concentration of approximately 5 mg tissue net weight/mL and the incubation time was 150 m. at 37° C. After incubation, the membranes were collected onto pretreated glass fiber filterplate (MultiScreen-FC, Millipore), with polyethylenimine 0.1%. The filters were washed two times with 200 μl of washing buffer (50 mM Tris Cl, pH=7.4) and then 25 μl of Ecoscint H liquid scintillation cocktail were added. […] Nonspecific binding was determined with 1 μM haloperidol.

T1 sequence (Q60492 whole entry): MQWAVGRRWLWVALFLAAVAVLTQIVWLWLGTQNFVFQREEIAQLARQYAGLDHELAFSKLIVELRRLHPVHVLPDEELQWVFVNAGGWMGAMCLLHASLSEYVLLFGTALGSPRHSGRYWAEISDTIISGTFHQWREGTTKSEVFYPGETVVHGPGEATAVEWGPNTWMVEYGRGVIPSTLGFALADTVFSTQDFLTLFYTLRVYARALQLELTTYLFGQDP

SMILES	Ki
CCCCCc1ccc2c(c1)[C@H]1OCC[C@H]1[C@@H](C1CCOCC1)N2 (racemic) [Example 85, (3aSR*,4RS*,9bSR*)-8-pentyl-4-(tetrahydro-2H-pyran-4-yl)-2,3,3a,4,5,9b-hexahydrofuro[3,2-c]quinoline hydrochloride]	155 nM
Clc1ccc(Oc2ccc3c(c2)[C@H]2OCCC[C@H]2[C@@H](C2CCCCC2)N3)cc1Cl (racemic) [Example 93, (4aSR*,5RS*,10bSR*)-5-cyclohexyl-9-(3,4-dichlorophenoxy)-3,4,4a,5,6,10b-hexahydro-2H-pyrano[3,2-c]quinoline hydrochloride]	79.3 nM
CC(C)CCOc1ccc2c(c1)[C@H]1OCC[C@H]1[C@@H](C1CCCCC1)N2 (racemic) [Example 32, (3aSR*,4RS*,9bSR*)-4-cyclohexyl-8-(isopentyloxy)-2,3,3a,4,5,9b-hexahydrofuro[3,2-c]quinoline hydrochloride]	108 nM
CCCCCc1ccc2c(c1)[C@H]1OCCC[C@H]1[C@@H](C1CCOCC1)N2 (racemic) [Example 63, (4aSR*,5RS*,10bSR*)-9-pentyl-5-(tetrahydro-2H-pyran-4-yl)-3,4,4a,5,6,10b-hexahydro-2H-pyrano[3,2-c]quinoline hydrochloride]	61.9 nM
Fc1ccc(COc2ccc3c(c2)[C@H]2OCC[C@H]2[C@@H](C2CCCCC2)N3)cc1 (racemic) [Example 91, (3aSR*,4RS*,9bSR*)-4-cyclohexyl-8-(4-fluorobenzyloxy)-2,3,3a,4,5,9b-hexahydrofuro[3,2-c]quinoline hydrochloride]	267 nM
Clc1ccc(Oc2ccc3c(c2)[C@H]2OCC[C@H]2[C@@H](C2CCCCC2)N3)cc1Cl (racemic) [Example 92, (3aSR*,4RS*,9bSR*)-4-cyclohexyl-8-(3,4-dichlorophenoxy)-2,3,3a,4,5,9b-hexahydrofuro[3,2-c]quinoline hydrochloride]	110 nM
CC(C)CCOc1ccc2c(c1)[C@H]1OCCC[C@H]1[C@@H](C1CCCCC1)N2 (racemic) [Example 27, (4aSR*,5RS*,10bSR*)-5-cyclohexyl-9-(isopentyloxy)-3,4,4a,5,6,10b-hexahydro-2H-pyrano[3,2-c]quinoline hydrochloride]	51.6 nM
CCCCCc1ccc2c(c1)[C@H]1OCCC[C@H]1[C@@H](C1CCCCC1)N2 (racemic) [Example 60, (4aSR*,5RS*,10bSR*)-5-cyclohexyl-9-pentyl-3,4,4a,5,6,10b-hexhaydro-2H-pyrano[3,2-c]quinoline hydrochloride]	42.6 nM

Second part, the compound after the results:

Ki	SMILES
242 nM	NCCCCOc1ccc2c(c1)[C@H]1OCCC[C@H]1[C@@H](C1CCCCC1)N2 (racemic) [Example 111, 4-((4aSR*,5RS*,10bSR*)-5-cyclohexyl-3,4,4a,5,6,10b-hexahydro-2H-pyrano[3,2-c]quinolin-9-yloxy)butan-1-amine hydrochloride]
27.2 nM	COc1ccc2c(c1)[C@H]1OCCC[C@H]1[C@@H](C1CCN(Cc3ccc(Cl)cc3)CC1)N2 (racemic) [Example 109, (4aSR*,5RS*,10bSR*)-5-(1-(4-chlorobenzyl)piperidin-4-yl)-9-methoxy-3,4,4a,5,6,10b-hexahydro-2H-pyrano[3,2-c]quinoline hydrochloride]
536 nM	CC(C)CCOc1ccc2c(c1)[C@H]1OCCC[C@H]1[C@@H](C1CCNCC1)N2 (racemic) [Example 100, (4aSR*,5RS*,10bSR*)-9-(isopentyloxy)-5-(piperidin-4-yl)-3,4,4a,5,6,10b-hexahydro-2H-pyrano[3,2-c]quinoline hydrochloride]
89.1 nM	CCCCCc1ccc2c(c1)[C@H]1OCC[C@H]1[C@@H](C1CCSCC1)N2 (racemic) [Example 95, (3aSR*,4RS*,9bSR*)-8-pentyl-4-tetrahydro-2H-thiopyran-4-yl)-2,3,3a,4,5,9b-hexahydrofuro[3,2-c]quinoline hydrochloride]
25.3 nM	NCCCOc1ccc2c(c1)[C@H]1OCC[C@H]1[C@@H](C1CCCCC1)N2 (racemic) [Example 106, 3-((3aSR*,4RS*,9bSR*)-4-cyclohexyl-2,3,3a,4,5,9b-hexahydrofuro[3,2-c]quinolin-8-yloxy)propan-1-amine hydrochloride]
